Results taken from patent publication US11213561B2, “Herbal methods for the improvement of sleep, social interaction, concern or worry” (Rox IP Pty Ltd., priority 2017, dated 2022).

Test system: individuals with poor sleep, anxiety, worry
Assay: Individual cases treated with the four herb combination
Type: in vivo, human
Settings: third case; patient history, prostate medication
From the text: For example, the four herb combination was used to treat three separate individuals, each at a different age with varying problems. The following are cases of how the four herb combination has improved the sleep onset, sleep maintenance, and energy of these individuals. […] They took Codeine and Paracetamol for 3 months, gradually reducing the dose whilst undergoing physiotherapy. The physiotherapy continued for approximately 6 months until the arm was fully functional and pain-free. One year after the original injury, their sleep was still impaired with onset and maintenance insomnia. The person stated that they “dreaded bedtime” and the hours they would be lying awake in bed. They worried during the day, with the worry increasing in the evening. […] In addition, they had changed their lifestyle avoiding commitments in the morning, and not socializing at night as they were worried that the stimulation would further impair their sleep. After 2 weeks on the herbal combination they noticed improvements. At 1 month, they were falling asleep within 20 minutes (versus over an hour before starting the treatment) and was waking up only once per night (versus 3 times or more before starting treatment). […] Their pattern was to readily fall asleep but then wake up 6 times throughout the night which led to urinating half the time, and then having difficulty returning to sleep. […]

## CCOc1ccccc1OCCN[C@H](C)Cc1ccc(OC)c(S(N)(=O)=O)c1 [Flomax, Tamsulosin]
  reducing night-time urination: some improvement
  waking at nights: not reduced
